Data as given in US11980616B2, “Treating liver disease by selectively eliminating senescent cells” (Buck Institute for Research on Aging, priority 2014, dated 2024).

What was measured:
[1] = tested on: IL-6 secretion by senescent IMR90 cells; experiment: IL-6 secretion ELISA in irradiated senescent IMR90 cells; format: cell-based, human; details: 10 μM for nine days, then six days without drug; ELISA normalized to cell number
Procedure: In another experiment, IMR90 cells were induced to senesce by irradiation (10 Gy). Seven days after irradiation, cells were treated with 10 μM Nutlin-3a or vehicle (DMSO) for nine days (Day 9). The drug or vehicle was refreshed every three days. Drug/vehicle was removed at Day 9 and the cells were cultured for an additional six days. Conditioned media from the treated cells was collected, and IL-6 measurement by ELISA was performed (Perkin Elmer, AL223F). IL-6 levels in culture media were determined by ELISA using a kit according to manufacturer's instructions (AL223F, Perkin Elmer). Cells were fixed with 4% paraformaldehyde and stained by immunofluorescence with a specific anti-IL-6 antibody (R&D, AF-206-NA). The IL-6 level determined by ELISA was normalized to the number of cells in each well. The data are presented in FIG. 22C as a relative level of IL-6 in the treated cells compared to the level in non-senescent cells (NS). The data are presented as an average of three different cell samples.

[2] = tested on: senescent mouse embryonic fibroblasts (MEF); experiment: Cell count survival assay, irradiation-induced senescent MEF; format: cell-based; details: irradiated MEF; 0, 2.5, 10 μM for 9 days
Procedure: (§1) Foreskin fibroblast cell lines HCA2 and BJ, lung fibroblast cell line IMR90, and mouse embryonic fibroblasts were seeded in six-well plates and induced to senesce with 10 Gy of ionizing radiation (IR) or a 24 hr treatment with doxorubicin (Doxo). Senescent phenotype was allowed to develop for at least 7 days, at which point a cell count was made to determine the baseline number of cells. Nutlin-3a treatment was then initiated for a period of at least 9 days. Media alone or media with drug as appropriate was refreshed at least every three days. At the end of the assay time period, cells are counted. Each condition was seeded in three plate wells and counted independently. Initial cell count serves as a control to determine the induction of senescence, as compared to the last day count without nutlin treatment. Initial non-senescent cell count serves as a proxy to determine Nutlin-3a toxicity.
(§2) Foreskin fibroblast cell lines HCA2 and BJ, lung fibroblast cell line IMR90, and mouse embryonic fibroblasts were exposed to 10 Gy of ionizing radiation (IR) to induce senescence. […] Percent survival was calculated as [cell count on day 9 of Nutlin-3a treatment/initial cell count on first day of Nutlin-3a treatment].

[3] = tested on: senescent lung fibroblasts (Sen(IR)IMR90); experiment: Cell count survival assay, irradiation-induced senescent IMR90; format: cell-based, human; details: 0, 2.5, 10 μM for 9 days
Procedure: as §1, §2

[4] = tested on: LDLR-/-/3MR double transgenic mice fed a HFD; experiment: Atherosclerosis model, LDLR-/-/3MR double transgenic mice fed a HFD; format: in vivo, mouse; details: vs LDLR-/- HFD controls
Procedure: The study illustrated in FIG. 43B assessed the extent to which […] based clearance of senescent cells from LDLR^−/−/3MR double transgenic mice improves pre-existing atherogenic disease. LDLR^−/−/3MR double transgenic mice (10 weeks) and LDLR^−/− single transgenic mice (10 weeks) are fed a high fat diet beginning at Week 0 until Week 12. Gancyclovir is administered to both groups of mice (25 mg/kg intraperitoneally) from weeks 12-13 and weeks 14-15. At week 16, the level of plaque and the number of senescent cells in the plaques are determined.

[5] = tested on: LDLR-/-/3MR double transgenic mice; experiment: Mature atherosclerotic plaques in LDLR-/-/3MR mice, 100 day treatment period; format: in vivo, mouse; details: vs LDLR-/- control
Procedure: The impact of clearance of senescent cells on the stability and size of mature atherosclerotic plaques was studied in LDLR^−/−/3MR double transgenic mice. From 10 weeks of age, LDLR^−/−/3MR double transgenic mice (10 weeks) and LDLR^−/− single transgenic mice (control) were fed a high fat diet (Harlan Teklad TD.88137) having 42% calories from fat beginning at Week 0 until Week 12.5, when the mice were switched to normal chow diet. Both groups of mice were treated with ganciclovir from week 12.5 over the next 100 days, with each treatment cycle comprising 5 days of ganciclovir (25 mg/kg intraperitoneally daily) and 14 days off. At the end of the 100 day treatment period, the mice were sacrificed, plasma and tissues were collected, and atherosclerosis was quantitated. Descending aortas were dissected and stained with Sudan IV to visualize the plaque lipids. […] Plaques from ganciclovir-treated LDLR^−/− control and LDLR^−/−/3MR mice (see dashed circled plaques in FIGS. 55A-B, respectively) were harvested and cut into cross-sections and stained with […] the general architecture of the atherosclerotic plaques. “#” indicates fat located on the outside of the aorta (see FIG. 55A). The plaques marked with an “*” and “**” in FIGS. 55A and B, respectively, are shown as stained cross-sections in FIGS. […], respectively. […] The plaque from the control mice has identifiable “lipid pockets” accumulating within. […] Disruption or tear in the cap of a lipid-rich plaque is a trigger for coronary events through exposure of plaque thrombogenic components to platelets and clotting components of the blood. Plaques that grow more rapidly as a result of rapid lipid deposition and have thin fibrin caps are prone to rupture. Slowly growing plaques with mature fibrin caps tend to stabilize and are not prone to rupture. Taken together, these experiments indicate that removal of senescent cells may affect atherosclerotic plaque architecture and have a stabilizing effect.

[6] = tested on: p16-3MR mice fed a high fat diet; experiment: High fat feeding-induced senescence in p16-3MR mice, SA-β-Gal staining of adipose tissue; format: in vivo, mouse; details: 25 mg/kg daily for five days; p=<0.004
Procedure: Groups of p16-3MR mice (n=6) were fed a high fat diet (60% fat) for four months mice or a regular chow diet. The presence of senescence cells was determined by measuring luminescence p16 positive cells). […] Animals were then treated with ganciclovir or vehicle to determine if removal of senescent cells reduced the presence of senescent cells in adipose tissue. Groups of animals were treated with ganciclovir or vehicle. Ganciclovir (25 mg/kg) was administered daily for five consecutive days. The presence of senescent cells in perirenal, epididymal, or subcutaneous inguinal adipose tissue was detected by SA-β-Gal staining. Data were analyzed by ANOVA.

SMILES	IL-6 level, fold lower than DMSO treated cells [1]	Percent survival [2]	Percent survival [3]	% of the aorta covered with plaque ([4]; 25 mg/kg i.p. weeks 12-13 and 14-15)	Plaque cross-sectional area ([4]; 25 mg/kg i.p.)	Atherosclerotic plaques in descending aorta (Sudan IV staining) ([5]; 25 mg/kg i.p. 5 days on, 14 days off, 100 days)	% of the aorta covered in plaques (area of Sudan IV staining) ([5]; 100 day treatment)	Plaque morphology (cross-sections) ([5]; 100 day treatment)	Presence of senescent cells in epididymal fat (SA-β-Gal staining) [6]
COc1ccc(C2=N[C@@H](c3ccc(Cl)cc3)[C@@H](c3ccc(Cl)cc3)N2C(=O)N2CCNC(=O)C2)c(OC(C)C)c1 [Nutlin-3a]	5-9 fold	reduced cell survival	reduced cell survival						
Nc1nc(O)c2ncn(COC(CO)CO)c2n1 [ganciclovir]				reduces the % of the aorta covered with plaque	reduced the plaque cross-sectional area	fewer atherosclerotic plaques with less intense staining	significantly lower	presence of a thick fibrin cap and the absence of lipid pockets	significant reduction
